We go through 19 compounds from PubChem BioAssay (NCI).

Among the test systems are SNB-19 CNS; A498 renal; SK-MEL-5 melanoma; IGROV1 ovarian; OVCAR-5 ovarian; SNB-75 CNS; RPMI-8226 leukemia; NCI/ADR-RES ovarian; PC-3 prostate; HCT-116 colon.
Common to all, as to assay: NCI anticancer screen, dose series, 48 h

Where “and” joins values, the source holds several entries; their conditions need not be identical. Identical values can stand only once.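 The compound was tested at five concentrations on cells cultured in 96-well plates, with a 48-hour exposure period. GI50 = concentration required for 50% inhibition of growth. TGI is the concentration that stops growth completely.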 Some results are limits rather than exact numbers.

In the case of `Cc1c2cc[n+](C)cc2c(C)c2c1[nH]c1ccccc12`, the TGI is 1.09 µM and 1.3 µM in the assay on SNB-19 CNS; 68.7 µM and 53.5 µM with A498 renal; 5.92 µM and 4.85 µM in the assay with SK-MEL-5 melanoma; 78.1 µM and 75.3 µM in the assay on IGROV1 ovarian; 56.6 µM and 61.1 µM with OVCAR-5 ovarian; 0.755 µM and 0.779 µM with SNB-75 CNS. In addition, the TGI in the assay on RPMI-8226 leukemia is 88.7 µM and 92 µM; in the assay on NCI/ADR-RES ovarian, above 100 µM; in the assay with PC-3 prostate, above 100 µM; in the assay on HCT-116 colon, 35.2 µM and 33.6 µM. Further, the GI50 with NCI/ADR-RES ovarian is 48 µM and 15 µM.
Consider `CCOC(=O)/C(=C\c1ccc(CO)o1)P(=O)(OCC)OCC`, for which the TGI with SNB-19 CNS, in the assay on A498 renal, in the assay on SK-MEL-5 melanoma, with IGROV1 ovarian, in the assay on OVCAR-5 ovarian and with SNB-75 CNS was above 100 µM throughout. The TGI with RPMI-8226 leukemia is 91.4 µM; with NCI/ADR-RES ovarian, above 100 µM; with PC-3 prostate it was above 100 µM; in the assay on HCT-116 colon it was 43.8 µM.
In the case of `c1ccc(N=NNNc2ccc(-c3nc4ccccc4[nH]3)cc2)cc1`, the TGI is above 100 µM in the assay on SNB-19 CNS; above 100 µM with A498 renal; above 100 µM with SK-MEL-5 melanoma; above 100 µM in the assay on IGROV1 ovarian; above 100 µM in the assay with OVCAR-5 ovarian; 88.7 µM in the assay with SNB-75 CNS. For the same compound, the TGI in the assay on RPMI-8226 leukemia was 42.4 µM; in the assay with NCI/ADR-RES ovarian, 75.1 µM; in the assay with PC-3 prostate, 82.3 µM; in the assay with HCT-116 colon, above 100 µM.
As for `COc1nc2c(c(=O)n1C)N[C@@H]1[C@@H](O)[C@H](O)CO[C@@H]1N2`, the TGI with SNB-19 CNS, in the assay with A498 renal, in the assay on SK-MEL-5 melanoma, with IGROV1 ovarian, with OVCAR-5 ovarian and in the assay on SNB-75 CNS was above 100 µM in each case. The TGI in the assay on RPMI-8226 leukemia, with NCI/ADR-RES ovarian, with PC-3 prostate and in the assay with HCT-116 colon was above 100 µM throughout.
On to `CCN(CC)CCNc1ccc(N=Nc2ccc(S(N)(=O)=O)cc2)c2ccccc12`, for which the TGI is 27.7 µM with SNB-19 CNS; 29.7 µM with A498 renal; 20.3 µM in the assay with SK-MEL-5 melanoma; 28.8 µM with IGROV1 ovarian; 88.1 µM with OVCAR-5 ovarian; 27 µM with SNB-75 CNS. Also, the TGI with RPMI-8226 leukemia is 18.7 µM; in the assay with NCI/ADR-RES ovarian it was above 100 µM; in the assay on PC-3 prostate, 29.7 µM; with HCT-116 colon, above 100 µM.
Turning to `COc1ccc(CN=CN/C(C#N)=C(\N)C#N)cc1OC`, the TGI with SNB-19 CNS, in the assay on A498 renal, in the assay on SK-MEL-5 melanoma, in the assay with IGROV1 ovarian, in the assay with OVCAR-5 ovarian and with SNB-75 CNS was above 100 µM each time. The TGI in the assay on RPMI-8226 leukemia, in the assay with NCI/ADR-RES ovarian, with PC-3 prostate and in the assay with HCT-116 colon was above 100 µM in each case.
In the case of `COc1cccc(C2c3cc4c(cc3OC(N3CCOCC3)C2C)OCO4)c1O` (stereo not drawn), the TGI in the assay with SNB-19 CNS was 36.4 µM; in the assay with A498 renal it was 20.8 µM; with SK-MEL-5 melanoma, 18.4 µM; in the assay on IGROV1 ovarian, 53.7 µM; in the assay on OVCAR-5 ovarian it was 60 µM; in the assay with SNB-75 CNS, above 100 µM. Further, the TGI was 19.8 µM with RPMI-8226 leukemia, 19.1 µM in the assay on NCI/ADR-RES ovarian, above 58.6 µM in the assay on PC-3 prostate and 16.6 µM in the assay with HCT-116 colon.
Regarding `O=C1CSC2(CCN(CCCN3c4ccccc4Sc4ccc(Cl)cc43)CC2)N1`, the TGI came out at 26 µM in the assay with SNB-19 CNS; 31 µM with A498 renal; 23 µM in the assay on SK-MEL-5 melanoma; 20.8 µM with IGROV1 ovarian; 24.3 µM in the assay with OVCAR-5 ovarian; 20.1 µM in the assay with SNB-75 CNS. The TGI in the assay with RPMI-8226 leukemia worked out at 18.3 µM; in the assay on NCI/ADR-RES ovarian, 20.2 µM; with PC-3 prostate it was 16.9 µM; in the assay with HCT-116 colon, 19.4 µM.
Consider `CC1(C)C2CCC1C(=O)C(C=O)C2` (stereo not drawn), for which the TGI with SNB-19 CNS, in the assay with A498 renal, in the assay with SK-MEL-5 melanoma, in the assay on IGROV1 ovarian, with OVCAR-5 ovarian and in the assay with SNB-75 CNS was above 100 µM in each case. For the same compound, the TGI with RPMI-8226 leukemia, in the assay on NCI/ADR-RES ovarian, with PC-3 prostate and in the assay with HCT-116 colon was above 100 µM each time.
Turning to `Fc1cccc2nc(-c3ccccc3)cc(OCc3ccccc3)c12`, the TGI in the assay with SNB-19 CNS, in the assay on A498 renal, with SK-MEL-5 melanoma, in the assay with IGROV1 ovarian, in the assay on OVCAR-5 ovarian and with SNB-75 CNS was above 100 µM throughout. For the same compound, the TGI in the assay with RPMI-8226 leukemia, with NCI/ADR-RES ovarian, in the assay with PC-3 prostate and with HCT-116 colon was above 100 µM throughout.
In the case of `O=C1NC(N2CCOCC2)=N/C1=C\c1ccccc1O`, the TGI with SNB-19 CNS, in the assay with A498 renal, with SK-MEL-5 melanoma, in the assay with IGROV1 ovarian, with OVCAR-5 ovarian and in the assay on SNB-75 CNS was above 100 µM in each case. Also, the TGI with RPMI-8226 leukemia, in the assay on NCI/ADR-RES ovarian, in the assay with PC-3 prostate and in the assay on HCT-116 colon was above 100 µM throughout.
Consider `CC(=O)Nc1ccc(Nc2nc(=O)[nH]c(=O)[nH]2)cc1`, for which the TGI with SNB-19 CNS, in the assay on A498 renal, in the assay with SK-MEL-5 melanoma, in the assay on IGROV1 ovarian, in the assay on OVCAR-5 ovarian and with SNB-75 CNS was above 100 µM throughout. Further, the TGI in the assay on RPMI-8226 leukemia, in the assay on NCI/ADR-RES ovarian, in the assay with PC-3 prostate and with HCT-116 colon was above 100 µM in each case.
For the compound `CN(C)Cc1cc(C(=O)O)cc(CN(C)C)c1O`, the TGI in the assay with SNB-19 CNS, with A498 renal, in the assay with SK-MEL-5 melanoma, with IGROV1 ovarian, with OVCAR-5 ovarian and with SNB-75 CNS was above 100 µM each time. The TGI with RPMI-8226 leukemia, in the assay on NCI/ADR-RES ovarian, in the assay on PC-3 prostate and with HCT-116 colon was above 100 µM each time.
With `Clc1ccc(OCc2nnc(CCCCCCCCc3nnc(COc4ccc(Cl)cc4Cl)o3)o2)c(Cl)c1`, the TGI with SNB-19 CNS, in the assay with A498 renal, with SK-MEL-5 melanoma, in the assay on IGROV1 ovarian, in the assay with OVCAR-5 ovarian and in the assay on SNB-75 CNS was above 100 µM each time. The TGI in the assay with RPMI-8226 leukemia, with NCI/ADR-RES ovarian, in the assay on PC-3 prostate and in the assay with HCT-116 colon was above 100 µM throughout.
For the compound `COc1ccc(-c2cc(-c3ccc(Nc4ccnc5cc(Cl)ccc45)cc3)nc(N)c2C#N)c2ccccc12`, the TGI with SNB-19 CNS, in the assay on A498 renal, in the assay on SK-MEL-5 melanoma, in the assay on IGROV1 ovarian, in the assay on OVCAR-5 ovarian and in the assay with SNB-75 CNS was above 100 µM throughout. In addition, the TGI with RPMI-8226 leukemia, in the assay with NCI/ADR-RES ovarian, with PC-3 prostate and in the assay on HCT-116 colon was above 100 µM throughout.
As for `NS(=O)(=O)c1ccc(/C=C/c2cccc(O)c2)cc1`, the TGI is above 100 µM in the assay with SNB-19 CNS; above 100 µM with A498 renal; 48.4 µM with SK-MEL-5 melanoma; above 100 µM with IGROV1 ovarian; above 100 µM with OVCAR-5 ovarian; 99 µM in the assay on SNB-75 CNS. The TGI with RPMI-8226 leukemia was 57.7 µM; in the assay on NCI/ADR-RES ovarian, above 100 µM; in the assay with PC-3 prostate it was above 100 µM; in the assay with HCT-116 colon it was above 100 µM. The GI50 in the assay with IGROV1 ovarian was 30.2 µM; with RPMI-8226 leukemia it was 18.9 µM.
Consider `COc1cccc(/C=C/C2=NN(c3cccc(S(=O)(=O)O)c3)C3(C2)SCC(=O)N3c2nc3ccccc3s2)c1` (stereo not drawn), for which the TGI with SNB-19 CNS, in the assay with A498 renal, in the assay on SK-MEL-5 melanoma, in the assay with IGROV1 ovarian, with OVCAR-5 ovarian and with SNB-75 CNS was above 100 µM in each case. The TGI was 52.4 µM with RPMI-8226 leukemia, above 100 µM with NCI/ADR-RES ovarian, above 100 µM in the assay with PC-3 prostate and above 100 µM with HCT-116 colon.
For the compound `COc1cc2[nH]c(-c3ccccc3)cc(=O)c2cc1OC`, the TGI was above 100 µM in the assay with SNB-19 CNS; above 100 µM in the assay on A498 renal; 54.4 µM in the assay with SK-MEL-5 melanoma; above 100 µM in the assay on IGROV1 ovarian; above 100 µM with OVCAR-5 ovarian; above 87.1 µM in the assay with SNB-75 CNS. In addition, the TGI in the assay on RPMI-8226 leukemia is above 100 µM; in the assay on NCI/ADR-RES ovarian it was above 100 µM; with PC-3 prostate, above 100 µM; in the assay with HCT-116 colon, above 49.7 µM.
Consider `COC(=O)/C=C1/OC(c2ccccc2)=C(Cl)C1=O`, for which the TGI is above 66.9 µM with SNB-19 CNS; 68.2 µM in the assay on A498 renal; 28.7 µM with SK-MEL-5 melanoma; 55.8 µM in the assay with IGROV1 ovarian; 35.6 µM in the assay on OVCAR-5 ovarian; 48.5 µM in the assay on SNB-75 CNS. In addition, the TGI in the assay on RPMI-8226 leukemia worked out at 22.5 µM; in the assay with NCI/ADR-RES ovarian, 61.9 µM; in the assay with PC-3 prostate it was 31.6 µM; in the assay with HCT-116 colon, 26.3 µM.
